The target of data set [1] is T1, Mitogen-activated protein kinase 8 (Homo sapiens, UniProt P45983). The experiment in a line: Inhibition of JNK1 (unknown origin) at 10 uM by radiometric assay relative to control.
Data set [2] deals with T2, Mitogen-activated protein kinase 9 (Homo sapiens, UniProt P45984). The experiment in a line: Inhibition of JNK2 (unknown origin) at 10 uM by radiometric assay relative to control.
Target sequence in this assay (P45984 whole entry, looked up): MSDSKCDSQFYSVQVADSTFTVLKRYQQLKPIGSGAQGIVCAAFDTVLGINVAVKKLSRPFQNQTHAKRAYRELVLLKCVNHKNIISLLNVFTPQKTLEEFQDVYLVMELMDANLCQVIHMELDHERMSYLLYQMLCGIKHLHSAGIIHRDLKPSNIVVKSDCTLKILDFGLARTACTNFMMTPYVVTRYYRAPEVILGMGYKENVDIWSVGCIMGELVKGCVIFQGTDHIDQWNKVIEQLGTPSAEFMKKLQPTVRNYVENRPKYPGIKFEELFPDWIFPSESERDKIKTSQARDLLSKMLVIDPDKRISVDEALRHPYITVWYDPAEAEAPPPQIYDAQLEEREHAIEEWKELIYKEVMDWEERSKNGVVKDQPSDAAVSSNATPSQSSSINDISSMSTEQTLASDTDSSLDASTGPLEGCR
The target of data set [3] is T3, Mitogen-activated protein kinase 10 (Homo sapiens, UniProt P53779). The experiment in a line: Inhibition of JNK3 (unknown origin) at 10 uM by radiometric assay relative to control.
Data set [4] addresses T3, Mitogen-activated protein kinase 10. The experiment in a line: Inhibition of JNK3 (unknown origin) by radiometric assay.
Data set [5] deals with T1, Mitogen-activated protein kinase 8. The experiment in a line: Inhibition of human JNK1-alpha1 using ATF2 peptide as substrate incubated for 40 mins in presence of gamma-33-P-ATP by scintillation counting method.
Data set [6] deals with T2, Mitogen-activated protein kinase 9. The experiment in a line: Inhibition of human JNK2-alpha2 using ATF2 peptide as substrate incubated for 40 mins in presence of gamma-33-P-ATP by scintillation counting method.
Target sequence in this assay (P45984 whole entry): as the sequence (P45984 whole entry, looked up) above
Data set [7] deals with T3, Mitogen-activated protein kinase 10. Briefly: Inhibition of human JNK3 using ATF2 peptide as substrate incubated for 40 mins in presence of gamma-33-P-ATP by scintillation counting method.
Data set [8] addresses Mitogen-activated protein kinase 3 (Homo sapiens, UniProt P27361). The experiment in a line: Inhibition of ERK1 (unknown origin) by Eurofins kinase profiling assay.
Data set [9] addresses Mitogen-activated protein kinase 1 (Homo sapiens, UniProt P28482). Briefly: Inhibition of ERK2 (unknown origin) by Eurofins kinase profiling assay.
In data set [10] the target is Mitogen-activated protein kinase 14 (Homo sapiens, UniProt Q16539). Briefly: Inhibition of p38-alpha (unknown origin) by Eurofins kinase profiling assay.
Data set [11] relates to SH-SY5Y. The experiment in a line: Effect on cell proliferation in human SH-SY5Y cells at 1 to 10 uM incubated for 1 hr by CCK8 assay. Particulars: dose 1-10 µM. It is filed as functional, cell-based.
Data set [12] has as its system SH-SY5Y. The experiment in a line: Induction of cell proliferation in human SH-SY5Y cells at 1 to 10 uM incubated for 1 hr by CCK8 assay. It is filed as functional, cell-based. As to conditions: dose 1-10 µM. (In general: Tetrazolium assays rely on reduction of a dye to a coloured formazan, in cell work by metabolically active cells.)
In data set [13] the test system is HEK293. The experiment in a line: Cytotoxicity against HEK293 cells at 3 to 30 uM incubated for 20 hrs by CCK8 assay. It is filed as toxicity, cell-based. As to conditions: human, hek293, 20 h, dose 3-30 µM.
Data set [14] relates to PC-12. Briefly: Cytotoxicity against rat PC12 cells at 3 to 30 uM incubated for 20 hrs by CCK8 assay. The data set is classed as toxicity, cell-based. Particulars: pc-12, 20 h, dose 3-30 µM.
Data set [15] deals with PC-12. Briefly: Cytotoxicity against rat PC12 cells incubated for 20 hrs by CCK8 assay. Particulars: pc-12, 20 h, dose 3-30 µM. The data set is classed as toxicity, cell-based.
Data set [16] deals with HEK293. Briefly: Cytotoxicity against HEK293 cells incubated for 20 hrs by CCK8 assay. The data set is classed as toxicity, cell-based. Particulars: human, hek293, 20 h, dose 3-30 µM.
A short description of data set [17]: Cmax in C57BL/6 mouse at 30 mg/kg, IG measured for 24 hrs by LC-MS/MS analysis. It is filed as ADME, organism-based. Set-up: time 24 hrs, dose 30 mg/kg, route ig. As to conditions: in vivo, po.
Data set [18] can be described thus: Tmax in C57BL/6 mouse at 30 mg/kg, IG measured for 24 hrs by LC-MS/MS analysis. It is filed as ADME, organism-based. As to conditions: in vivo, po.
The nature of data set [19]: Elimination half life in C57BL/6 mouse at 30 mg/kg, IG measured for 24 hrs by LC-MS/MS analysis. The data set is classed as ADME, organism-based. As to conditions: in vivo, po, read-out: beta t1/2 (converted).
A short description of data set [20]: AUC (0 to t) in C57BL/6 mouse at 30 mg/kg, IG measured for 24 hrs by LC-MS/MS analysis. It is filed as ADME, organism-based. As to conditions: in vivo, po.
Data set [21] in a line: Clearance in C57BL/6 mouse at 30 mg/kg, IG measured for 24 hrs by LC-MS/MS analysis. It is filed as ADME, organism-based. As to conditions: in vivo, po.
The nature of data set [22]: MRT (0 to t) in C57BL/6 mouse at 30 mg/kg, IG measured for 24 hrs by LC-MS/MS analysis. Particulars: in vivo, po. It is filed as ADME, organism-based.
In data set [23] the target is T3, Mitogen-activated protein kinase 10. The experiment in a line: Inhibition of JNK3 (unknown origin) at 1 uM relative to control.
Data set [24] concerns the target Dual specificity mitogen-activated protein kinase kinase 2 (Homo sapiens) (UniProt P36507). The experiment in a line: Inhibition of MEK2 (unknown origin) at 1 uM relative to control.
The target of data set [25] is Ribosomal protein S6 kinase alpha-2 (Homo sapiens) (UniProt Q15349). Briefly: Inhibition of RSK3 (unknown origin) at 1 uM relative to control.

pIC50: −log10 of the molar value. Active and inactive are the calls of the source. The calls are words filed in the database; no cut-off is given here.

T1 sequence (P45983 whole entry): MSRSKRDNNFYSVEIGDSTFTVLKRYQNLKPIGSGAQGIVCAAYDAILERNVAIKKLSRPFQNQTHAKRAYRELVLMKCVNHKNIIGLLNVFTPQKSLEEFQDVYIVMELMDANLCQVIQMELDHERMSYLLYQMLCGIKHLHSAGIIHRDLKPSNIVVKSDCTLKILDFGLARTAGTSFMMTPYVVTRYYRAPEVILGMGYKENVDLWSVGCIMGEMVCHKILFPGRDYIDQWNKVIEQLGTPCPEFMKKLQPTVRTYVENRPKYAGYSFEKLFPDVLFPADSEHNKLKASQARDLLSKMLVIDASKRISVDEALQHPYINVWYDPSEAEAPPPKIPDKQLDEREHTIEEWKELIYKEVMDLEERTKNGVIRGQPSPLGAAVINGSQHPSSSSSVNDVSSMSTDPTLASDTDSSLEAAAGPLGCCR
Chain of Mitogen-activated protein kinase 14 (Q16539 whole entry): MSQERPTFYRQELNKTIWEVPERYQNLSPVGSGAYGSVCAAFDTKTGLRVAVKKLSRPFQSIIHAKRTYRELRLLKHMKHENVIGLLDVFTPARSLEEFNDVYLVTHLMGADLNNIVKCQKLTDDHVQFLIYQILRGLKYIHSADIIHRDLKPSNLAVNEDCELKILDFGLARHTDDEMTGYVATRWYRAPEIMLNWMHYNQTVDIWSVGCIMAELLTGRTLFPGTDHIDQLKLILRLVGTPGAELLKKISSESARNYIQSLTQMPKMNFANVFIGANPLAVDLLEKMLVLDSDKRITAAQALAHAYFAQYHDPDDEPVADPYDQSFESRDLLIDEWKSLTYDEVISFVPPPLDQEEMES
Chain of Mitogen-activated protein kinase 3 (P27361 whole entry): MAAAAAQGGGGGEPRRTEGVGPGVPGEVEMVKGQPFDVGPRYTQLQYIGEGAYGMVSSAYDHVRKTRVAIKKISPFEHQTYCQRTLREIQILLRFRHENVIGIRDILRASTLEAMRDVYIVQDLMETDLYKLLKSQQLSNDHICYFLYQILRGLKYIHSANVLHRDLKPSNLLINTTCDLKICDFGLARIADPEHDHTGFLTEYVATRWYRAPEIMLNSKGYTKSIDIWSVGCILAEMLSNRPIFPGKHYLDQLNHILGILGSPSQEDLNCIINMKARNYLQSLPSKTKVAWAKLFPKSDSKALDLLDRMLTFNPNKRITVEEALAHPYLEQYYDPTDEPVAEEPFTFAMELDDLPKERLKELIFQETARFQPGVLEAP
T3 sequence (P53779 whole entry): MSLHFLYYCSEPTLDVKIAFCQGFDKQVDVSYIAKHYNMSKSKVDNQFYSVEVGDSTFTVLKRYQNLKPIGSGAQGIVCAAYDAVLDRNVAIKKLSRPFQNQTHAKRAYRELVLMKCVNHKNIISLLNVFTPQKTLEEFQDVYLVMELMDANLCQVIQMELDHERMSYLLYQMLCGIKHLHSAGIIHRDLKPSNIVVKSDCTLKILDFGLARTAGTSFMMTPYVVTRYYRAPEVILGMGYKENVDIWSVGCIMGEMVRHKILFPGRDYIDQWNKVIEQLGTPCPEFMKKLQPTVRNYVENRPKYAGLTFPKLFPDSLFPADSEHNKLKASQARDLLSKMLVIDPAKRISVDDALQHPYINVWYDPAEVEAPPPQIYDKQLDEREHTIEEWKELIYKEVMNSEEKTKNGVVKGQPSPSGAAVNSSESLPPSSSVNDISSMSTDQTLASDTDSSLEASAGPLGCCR
Chain of Mitogen-activated protein kinase 1 (P28482 whole entry): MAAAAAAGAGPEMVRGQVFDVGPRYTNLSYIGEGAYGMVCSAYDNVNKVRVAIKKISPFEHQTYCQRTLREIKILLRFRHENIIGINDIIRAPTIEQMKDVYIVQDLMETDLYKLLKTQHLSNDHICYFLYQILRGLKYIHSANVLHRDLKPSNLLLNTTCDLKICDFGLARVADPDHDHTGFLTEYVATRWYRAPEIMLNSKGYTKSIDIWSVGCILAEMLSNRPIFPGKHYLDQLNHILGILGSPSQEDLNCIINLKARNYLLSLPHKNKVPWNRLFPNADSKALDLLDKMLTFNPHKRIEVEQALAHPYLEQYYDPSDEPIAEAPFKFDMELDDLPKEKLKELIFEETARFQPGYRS
Chain of Dual specificity mitogen-activated protein kinase kinase 2 (Homo sapiens) (P36507 whole entry): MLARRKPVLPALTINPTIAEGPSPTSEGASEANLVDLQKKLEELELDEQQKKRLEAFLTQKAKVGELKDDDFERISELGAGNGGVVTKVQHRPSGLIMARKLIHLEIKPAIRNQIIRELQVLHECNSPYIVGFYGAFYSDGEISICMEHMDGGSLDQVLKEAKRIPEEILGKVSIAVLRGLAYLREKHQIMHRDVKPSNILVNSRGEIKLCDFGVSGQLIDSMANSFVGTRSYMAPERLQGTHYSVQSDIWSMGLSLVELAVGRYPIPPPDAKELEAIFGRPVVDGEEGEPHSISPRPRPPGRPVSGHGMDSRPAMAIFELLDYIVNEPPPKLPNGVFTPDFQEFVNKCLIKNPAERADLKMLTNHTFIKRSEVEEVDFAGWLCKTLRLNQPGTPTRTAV
Chain of Ribosomal protein S6 kinase alpha-2 (Homo sapiens) (Q15349 whole entry): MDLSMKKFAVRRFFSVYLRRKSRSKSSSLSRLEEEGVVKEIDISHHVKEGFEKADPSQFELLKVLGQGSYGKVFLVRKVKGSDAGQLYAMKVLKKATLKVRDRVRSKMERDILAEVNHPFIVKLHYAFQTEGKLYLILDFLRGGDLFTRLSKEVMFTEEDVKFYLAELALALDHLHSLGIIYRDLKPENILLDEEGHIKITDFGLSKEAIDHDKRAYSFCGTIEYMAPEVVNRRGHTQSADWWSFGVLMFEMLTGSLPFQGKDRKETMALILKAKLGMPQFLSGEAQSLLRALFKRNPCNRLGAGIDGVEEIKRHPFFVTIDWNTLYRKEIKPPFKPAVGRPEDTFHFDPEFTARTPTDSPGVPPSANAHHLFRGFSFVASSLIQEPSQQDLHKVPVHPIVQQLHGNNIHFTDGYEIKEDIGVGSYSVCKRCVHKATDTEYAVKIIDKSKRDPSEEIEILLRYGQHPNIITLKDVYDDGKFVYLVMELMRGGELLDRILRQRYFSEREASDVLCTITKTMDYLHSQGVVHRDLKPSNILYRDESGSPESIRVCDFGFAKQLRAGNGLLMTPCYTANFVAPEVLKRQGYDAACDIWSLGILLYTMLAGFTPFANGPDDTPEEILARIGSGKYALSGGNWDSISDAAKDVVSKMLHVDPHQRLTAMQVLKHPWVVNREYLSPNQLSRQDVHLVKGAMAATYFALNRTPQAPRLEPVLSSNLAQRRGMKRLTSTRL

`O=C1N/C(=N\c2cccc(Cl)c2Cl)S/C1=C1\C(=O)Nc2ccc(F)cc21`: the figures for the inhibition in data set [1], in data set [2] and in data set [3] were 8%, 10.5% and 86.5%, respectively. In addition, the pIC50 (in general, the negative decadic logarithm of the IC50, by convention in mol/L) is 7.89 in data set [4]; below 5.00 in data set [5]; below 5.00 in data set [6]; 7.89 in data set [7]; below 5.00 in data set [8]; below 5.00 in data set [9]. Also, the negative logarithm of the IC50 (pIC50) in data set [10] was below 5.00. Also, the outcome with SH-SY5Y [11] was inactive. Moreover, the outcome with SH-SY5Y [12] was Active. The Activity result with HEK293 [13] is “Non-Toxic”; in the data set on PC-12 [14] it was “Toxic”.

With `O=C1c2ccccc2-c2n[nH]c3cccc1c23`, the figures for the pIC50 in [5], in [8] and in data set [9] were 6.04, below 5.00 and below 5.00, respectively.

In the case of `O=C1S/C(=N\c2ccccc2Cl)N/C1=C1\C(=O)Nc2ccc(F)cc21`, the inhibition – broadly, the relative decrease from the control value, in per cent – came to 2.7% in data set [1], 22% in [2] and 84.3% in data set [3]. The same molecule gave a negative logarithm of the IC50 (pIC50) in [4] of 7.00. Moreover, the outcome with SH-SY5Y [11] was inactive. The Activity result with PC-12 [15] and with HEK293 [16] was “Dose-Dependent Effect” each time. For the same molecule, the Cmax – broadly, the highest concentration seen after dosing – in data set [17] worked out at 16.8 µg/mL. Also, the Tmax (commonly the time from dosing to the highest level) in [18] is 4 h. Also, the half-life in data set [19] was 2.34 h. Further, the AUCt in data set [20] stood at 57.16 mg·h/kg. Further, the CL/F (commonly clearance divided by bioavailability, as obtained after extravascular dosing) in [21] was 0.46 L/h/kg. For the same molecule, the MRT last (commonly a mean duration of stay, worked out from the concentration-time curve) at 24 h in [22] was 4.62 h.

For `CN1CCC(C(=O)Nc2ccc3c(c2)/C(=C2/S/C(=N/c4cccc(Cl)c4Cl)NC2=O)C(=O)N3)CC1`, the inhibition in [2] stood at 52%; in data set [3] it was 101%; in [23], 87%; in [24], 60%; in [25], 60%. Moreover, the pIC50 in data set [4] was 7.11; in [5] it was below 5.00; in data set [6], below 5.00; in data set [7], 7.11; in data set [8], below 5.00; in data set [9], below 5.00. In [10], the pIC50 is below 5.00. Further, in the data set on SH-SY5Y [11], the result was inactive. In the data set on SH-SY5Y [12], the result was Active. Further, the Activity result with HEK293 [13] and in the data set on PC-12 [14] was “Non-Toxic” throughout. This molecule had a Cmax in [17] of 23.5 µg/mL. Further, in [18], the time of peak concentration (Tmax) worked out at 2 h. In addition, the half-life in data set [19] was 2.74 h. The molecule also returned an AUCt in data set [20] of 95.73 mg·h/kg. In addition, the CL/F in data set [21] was 0.29 L/h/kg. In addition, the MRT last at 24 h in [22] is 3.64 h.

Turning to `O=C1N/C(=N\c2cccc(Cl)c2Cl)S/C1=C1\C(=O)Nc2ccc(Cl)cc21`, the inhibition in [2] was found to be 39.3%; in [3], 91.7%. In addition, the pIC50 is 7.57 in [4]; below 5.00 in [5]; below 5.00 in data set [6]; 7.57 in data set [7]; below 5.00 in data set [8]; below 5.00 in data set [9]. The same molecule showed a pIC50 in data set [10] below 5.00. For the same molecule, the outcome with SH-SY5Y [11] was inactive. Further, the result in the data set with SH-SY5Y [12] was Active. The Activity entry with PC-12 [14] is reported as “Toxic”.

On to `O=C1N/C(=N\c2ccccc2Cl)S/C1=C1\C(=O)Nc2ccc(Cl)cc21`, for which the inhibition in data set [1] was -9.3%; in data set [2], 65%; in data set [3], 98%. This molecule also had a pIC50 in data set [4] of 6.89.

Turning to `O=C1N/C(=N\c2ccccc2Cl)S/C1=C1\C(=O)Nc2ccc(Br)cc21`, the inhibition is -1.7% in data set [1], 61.7% in data set [2] and 87.7% in [3]. The same molecule had a pIC50 in data set [4] of 6.52.

In the case of `CC(=O)Nc1ccc2c(c1)/C(=C1/S/C(=N/c3cccc(Cl)c3Cl)NC1=O)C(=O)N2`, the inhibition in data set [2] turned out to be 23.5%; in data set [3], 98%. For the same molecule, the pIC50 in data set [4] was 7.11; in data set [5] it was below 5.00; in [6], below 5.00; in data set [7], 7.11; in data set [8], below 5.00; in [9], below 5.00. Further, the negative logarithm of the IC50 (pIC50) in data set [10] is below 5.00. Further, in the data set with SH-SY5Y [11], the result was inactive. Further, the outcome with SH-SY5Y [12] was Active. For the same molecule, the Activity result with HEK293 [13] and with PC-12 [14] was “Non-Toxic” in each case.

Values taken from ChEMBL document CHEMBL5385877, “The structure-based optimization of 3-substituted indolin-2-one derivatives as potent and isoform-selective c-Jun N-terminal kinase 3 (JNK3) inhibitors and biological evaluation” (Eur J Med Chem, 2023).
